Assay results reported in patent publication US20140134730A1, “METHOD FOR INHIBITING CELL PROLIFERATION BY OXIDATIVE STRESS” (KYOWA HAKKO KIRIN CO., LTD, priority 2012, published 2014).

Test system: SNU-16
Assay: Western blot analysis of DNA damage (H2A.X Phospho-Ser139)
Assay type: cell-based
Conditions: 8 hours, KM4008HV2LV3 10 μg/mL, H2O2 50 μM
Experimental: Anti-phospho-Histone H2A.X Ser139, clone JBW301 (Millipore Catalog No. 05-636) as a primary antibody and anti-mouse IgG, HRP-linked antibody (CST Catalog No. 7076) as a secondary antibody were used.
SNU-16 was seeded in 10 mL of the assay medium at a density of 2×10^4 cells/mL, and cultured at 37° C. under the conditions of 5% CO2 for 24 hours. Then, KM4008HV2LV3 (final concentration of 10 μg/mL), the solvent solution of antibody, or hydrogen peroxide (H2O2) (final concentration of 50 μM) was added. The cells were left at 37° C. under the conditions of 5% CO2 for 8 hours, and the suspending cells were recovered together with the culture supernatant.
The adherent cells were washed with D-PBS(−) (manufactured by Nacalai Tesque, Catalog No. 14249-95), and then 1.5 mL of TrypLE select (manufactured by Invitrogen, Catalog No. 12563-011) was added and left at 37° C. under the conditions of 5% CO2 for 5 minutes for detachment, and then mixed with the suspending cells recovered in advance to be used in the subsequent manipulations. […]
The cell lysate thus obtained was left on ice for 15 minutes, followed by centrifugation at 15,000 rpm for 15 minutes. The protein concentration in the supernatant thus obtained was determined using a BCA protein assay kit (manufactured by Pierce, Catalog No. 23225). […]

## OO [H2O2, hydrogen peroxide]
  Phosphorylation signals of H2A.X Ser139 (Western blot) compared to solvent-treated cells: increased
